We go through 9 compounds from ChEMBL document CHEMBL1151043, “The synthesis and antibacterial activity of 2-para-quarternary ammoniomethylphenyl-carbapenems” (1993).

For assay [1], the target named is T1, Dipeptidase 1 (Sus scrofa) (UniProt P22412).
T1 sequence (whole entry): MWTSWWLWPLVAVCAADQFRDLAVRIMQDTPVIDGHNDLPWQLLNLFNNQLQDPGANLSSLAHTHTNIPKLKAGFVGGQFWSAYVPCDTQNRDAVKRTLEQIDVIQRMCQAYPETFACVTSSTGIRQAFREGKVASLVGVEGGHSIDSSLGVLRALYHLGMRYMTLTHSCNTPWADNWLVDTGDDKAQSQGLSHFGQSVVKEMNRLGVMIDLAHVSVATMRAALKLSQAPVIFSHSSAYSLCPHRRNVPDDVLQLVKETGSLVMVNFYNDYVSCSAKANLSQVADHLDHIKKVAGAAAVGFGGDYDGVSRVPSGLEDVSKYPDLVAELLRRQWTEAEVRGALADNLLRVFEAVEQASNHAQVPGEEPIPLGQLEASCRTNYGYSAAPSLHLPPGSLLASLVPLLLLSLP
The experiment in a line: Susceptibility of compound towards porcine Dehydropeptidase-1 relative to imipenem as […] was calculated.

The next assay relates to Enterococcus. The assay can be described thus: In vitro antibacterial activity against Enterococcus relative to thienamycin. It is filed as functional.
The test system of the next assay is Escherichia coli. The experiment in a line: In vitro antibacterial activity against Escherichia coli relative to thienamycin. The assay is classed as functional.
The subject of a further assay is Enterobacter. The assay can be described thus: In vitro antibacterial activity against Enterobacter relative to thienamycin. The assay is classed as functional.
The subject of a further assay is Klebsiella. The experiment in a line: In vitro antibacterial activity against Klebsiella relative to thienamycin. It is filed as functional.
A further assay deals with Pseudomonas. The experiment in a line: In vitro antibacterial activity against Pseudomonas relative to thienamycin. It is filed as functional.
In another assay the test system is Proteus. The assay can be described thus: In vitro antibacterial activity against Proteus relative to thienamycin. It is filed as functional, Proteus sp.
The next assay relates to Serratia. The assay can be described thus: In vitro antibacterial activity against Serratia relative to thienamycin. The assay is classed as functional.
A further assay deals with Staphylococcus aureus. The experiment in a line: In vitro antibacterial activity against Staphylococcus aureus relative to thienamycin. It is filed as functional.

As to `C[C@@H](O)[C@H]1C(=O)N2C(C(=O)[O-])=C(c3ccc(C[n+]4ccc(N5CCCCC5)cc4)cc3)C[C@H]12`, the Susceptibility in [1] is 0.11. Further, the Relative potency is 5.7 in the assay on Enterococcus; 2.8 in the assay with Escherichia coli; 2.5 with Enterobacter; 0.5 in the assay on Klebsiella; 0.05 with Pseudomonas; 4 in the assay on Proteus. For the same compound, the Relative potency in the assay on Serratia was found to be 2.8; with Staphylococcus aureus, 1.1.
With `C[C@@H](O)[C@H]1C(=O)N2C(C(=O)O)=C(c3ccc(CN4CCSCC4)cc3)C[C@H]12`, in assay [1], the Susceptibility is 0.13. The Relative potency is on record as 9.2 with Enterococcus; 2.3 in the assay on Escherichia coli; 3.2 in the assay on Enterobacter; 1.3 with Klebsiella; 0.03 in the assay with Pseudomonas; 7 with Proteus. In addition, the Relative potency in the assay on Serratia came out at 7.5; with Staphylococcus aureus it was 0.9.
As for `C[C@@H](O)[C@H]1C(=O)N2C(C(=O)O)=C(c3ccc(CN4CCCC4)cc3)C[C@H]12`, in [1], the Susceptibility is 0.04. The Relative potency came out at 12.1 in the assay on Enterococcus; 2.8 in the assay with Escherichia coli; 5.7 in the assay on Enterobacter; 2.1 in the assay with Klebsiella; 0.07 with Pseudomonas; 8 in the assay with Proteus. The Relative potency is given as 9.8 with Serratia and 0.6 in the assay on Staphylococcus aureus.
`C[C@@H](O)[C@H]1C(=O)N2C(C(=O)[O-])=C(c3ccc(C[n+]4ccc(N)cc4)cc3)C[C@H]12`: the Susceptibility in assay [1] is 0.14. The Relative potency in the assay on Enterococcus was 24.3; in the assay on Escherichia coli it was 7; with Enterobacter it was 11.3; in the assay on Klebsiella it was 2.3; in the assay with Pseudomonas it was 0.2; in the assay with Proteus, 16. The Relative potency in the assay on Serratia came out at 29.9; in the assay with Staphylococcus aureus, 1.1.
Take `C[C@H](O)[C@H]1C(=O)N2C(C(=O)O)=C(c3ccc(CN)cc3)C[C@H]12`: the Susceptibility in [1] was 0.02.
On to `C[C@@H](O)[C@H]1C(=O)N2C(C(=O)[O-])=C(c3ccc(C[n+]4cccc(C#N)c4)cc3)C[C@H]12`, for which, in assay [1], the Susceptibility is 0.06. Moreover, the Relative potency in the assay on Enterococcus was 10.6; in the assay on Escherichia coli, 4; in the assay on Enterobacter it was 9.8; in the assay with Klebsiella, 2.1; in the assay on Pseudomonas, 0.1; in the assay with Proteus, 4.6. The Relative potency in the assay with Serratia is given as 11.3; with Staphylococcus aureus, 0.9.
`C[C@@H](O)[C@H]1C(=O)N2C(C(=O)[O-])=C(c3ccc(C[n+]4ccccc4)cc3)C[C@H]12`: in assay [1], the Susceptibility was 0.07. Also, the Relative potency with Enterococcus was 13; in the assay on Escherichia coli it was 3.5; in the assay with Enterobacter, 7; in the assay with Klebsiella it was 4.3; in the assay on Pseudomonas, 0.1; in the assay on Proteus, 9.8. For the same compound, the Relative potency in the assay on Serratia turned out to be 9.8; in the assay with Staphylococcus aureus, 1.3.
On to `C[C@@H](O)[C@H]1C(=O)N2C(C(=O)[O-])=C(c3ccc(C[n+]4cccc(C(=O)O)c4)cc3)C[C@H]12`, for which the Susceptibility in [1] was 0.08.
On to `CC(O)[C@H]1C(=O)N2C(C(=O)O)=C(c3ccc(CN)cc3)C[C@H]12` (some centres undefined), for which the Relative potency came out at 9.2 in the assay with Enterococcus; 3.5 in the assay with Escherichia coli; 11 in the assay on Enterobacter; 3.2 in the assay with Klebsiella; 0.02 in the assay with Pseudomonas; 6.5 in the assay on Proteus. For the same compound, the figures for the Relative potency in the assay on Serratia and with Staphylococcus aureus were 5.3 and 1.5, respectively.
